Assay results as given in US4567165A, “N-Methanesulfonic acid derivatives of 3-demethoxyistamycin B” (Zaidan Hojin Biseibutsu Kagaku Kenkyu Kai, priority 1984, dated 1986).
Values after ≈ are worked out from the molar mass of the structure shown.

How the values were obtained:
[1] = test system: Escherichia coli JR66/W677; test: Minimum inhibitory concentration, standard serial dilution method on Mueller-Hinton agar; type: cell-based; details: 37° C., 17 hours
Description: (§1) Minimum inhibitory concentrations (mcg/ml) of the parent 3-demethoxyistamycin B were also estimated in the same manner for the comparison purpose and also are shown in Table 1.

[2] = test system: Escherichia coli K-12 C600 R135; test: as above; type: cell-based; details: 17 hours; for Minimum Inhibitory concentration: 37° C.
Description: as §1

Providencia Pv 16 = test: as above; type: cell-based; details: 17 hours; for Minimum Inhibitory concentration: 37° C.
Description: as §1

[3] = test system: Pseudomonas aeruginosa A3; test: as above; type: cell-based; details: 37° C., 17 hours
Description: as §1

[4] = test system: Pseudomonas aeruginosa GN315; test: as above; type: cell-based; details: 37° C., 17 hours
Description: as §1

[5] = test system: Pseudomonas aeruginosa H9; test: as above; type: cell-based; details: 37° C., 17 hours
Description: as §1

[6] = test system: Pseudomonas aeruginosa TI-13; test: as above; type: cell-based; details: 17 hours; for Minimum Inhibitory concentration: 37° C.
Description: as §1

Serratia marcescens = test: as above; type: cell-based; details: 37° C., 17 hours
Description: as §1

[7] = test system: Staphylococcus aureus 209P; test: as above; type: cell-based; details: for Minimum Inhibitory concentration: Staphylococcus aureus 209P, Mueller-Hinton agar, 37° C., 17 hours
Description: as §1

[8] = test system: Staphylococcus aureus Ap01; test: as above; type: cell-based; details: 37° C., 17 hours
Description: as §1

Escherichia coli JR225 = test: as above; type: cell-based; details: JR225, 17 h, read-out: Minimum Inhibitory concentration
Description: as §1

[9] = test system: Escherichia coli K-12 LA290 R55; test: as above; type: cell-based; details: K12LA290R55, 17 h, read-out: Minimum Inhibitory concentration
Description: as §1

[10] = test system: Escherichia coli K-12 ML1629; test: as above; type: cell-based; details: K12ML1629, 37° C., 17 hours
Description: as §1

Escherichia coli K-12 R5 = test: as above; type: cell-based; details: K12R5, 17 h, read-out: Minimum Inhibitory concentration
Description: as §1

Escherichia coli K-12 = test: as above; type: cell-based; details: K12, 37° C., 17 hours
Description: as §1

[11] = Acute toxicity, intravenous, in mice; details: mouse, in vivo, mice (ICR, adult female), single administration in saline
Protocol: Acute toxicity of the various N-methanesulfonic acid derivatives of 3-demethoxyistamycin B of the invention has been determined by the following procedure:
A test compound or substance was dissolved in 0.25 ml of a physiological saline solution and the solution of the test compound or substance so prepared was intravenously administered into a series of mouse groups each consisting of six mice (ICR strain, adult female, body weight 20 g±0.5 g) as the test animal, so that the test compound or substance was given to each mouse. Acute toxicity of 3-demethoxyistamycin B was also estimated in the same manner as above for the comparison purpose.

| Molecule | Minimum Inhibitory concentration [1] [µg/mL] | Minimum Inhibitory concentration [2] [µg/mL] | Minimum Inhibitory concentration (Providencia Pv 16) [µg/mL] | Minimum Inhibitory concentration [4] [µg/mL] | Minimum Inhibitory concentration [5] [µg/mL] | Minimum Inhibitory concentration [6] [µg/mL] | Minimum Inhibitory concentration (Serratia marcescens) [µg/mL] | Minimum Inhibitory concentration [7] [µg/mL] | Minimum Inhibitory concentration [8] [µg/mL] | further results |
| --- | --- | --- | --- | --- | --- | --- | --- | --- | --- | --- |
| 3-demethoxyistamycin B-di-N-methanesulfonicacid sodium salt [Compound (2)] | 3.13 | 6.25 | 1.56 | 100 | 50 | 25 | 3.13 | 0.78 | 0.78 | Minimum Inhibitory concentration [3]: 0.78 µg/mL |
| 3-demethoxyistamycin B-mono-N-methanesulfonic acid sodium salt [Compound (1)] | – | 6.25 | – | 100 | 50 | 25 | – | – | – | – |
| 3-demethoxyistamycin B-tetra-N-methanesulfonic acid sodium salt [Compound (4)] | 6.25 | – | 1.56 | – | 50 | – | 3.13 | – | 1.56 | – |
| 3-demethoxyistamycin B-tri-N-methanesulfonic acid sodium salt [Compound (3)] | 3.13 | – | – | 50 | 50 | 25 | 6.25 | 1.56 | 0.78 | – |
| CNCC1CCC(N)C(OC2C(N)CCC(N(C)C(=O)CN)C2O)O1 (stereo not drawn) [3-Demethoxyistamycin B] | – | – | – | – | – | – | – | – | – | MIC (Escherichia coli JR225): 0.78 µg/mL (≈ 2.17 µM); MIC [1]: 0.78 µg/mL (≈ 2.17 µM); MIC ([2]; K12C600R135, 37° C.): 0.78 µg/mL (≈ 2.17 µM); MIC [9]: 1.56 µg/mL (≈ 4.34 µM); MIC [10]: 0.78 µg/mL (≈ 2.17 µM); MIC (Escherichia coli K-12 R5): 1.56 µg/mL (≈ 4.34 µM); MIC (Escherichia coli K-12): 0.78 µg/mL (≈ 2.17 µM); MIC (Providencia Pv 16; PV16, 37° C.): 0.78 µg/mL (≈ 2.17 µM); MIC [3]: 0.39 µg/mL (≈ 1.08 µM); MIC [4]: 6.25 µg/mL (≈ 17.4 µM); MIC [5]: 12.5 µg/mL (≈ 34.8 µM); MIC ([6]; TI13, 37° C.): 6.25 µg/mL (≈ 17.4 µM); MIC (Serratia marcescens): 0.78 µg/mL (≈ 2.17 µM); MIC ([7]; Staphylococcus aureus, 209P, 17 h, read-out: Minimum Inhibitory concentration): < 0.2 µg/mL; MIC [8]: 0.39 µg/mL (≈ 1.08 µM); LD50 [11]: 100 to 200 mg/kg |
